From article PMC12382740, “In Vitro and In Vivo Characterization of Novel Cathelicidin-Based Peptides with Antimicrobial Activity Against Pseudomonas aeruginosa” (Antibiotics, 2025)
Square brackets hold non-standard residues; d marks the D form. Peptide text beside a SMILES is read from it.

How the values were obtained:
[1] = system: P. aeruginosa ATCC 121110; experiment: Time-kill kinetic assay; format: cell-based, Pseudomonas aeruginosa
Experimental: (§1) Timepoints to withdraw aliquots of liquid cultures for each peptide, concentration, and strain were established at the following: 0, 2, 4, 8, and 24 h after inoculation. McFarland 0.5 solutions (~1.5 × 10^8 CFU/mL) were prepared from single-picked colonies grown O/N at 37 °C in Columbia Agar plates. Thirteen mL Falcon tubes were used to prepare solutions containing 5 mL of total volume by adding the following: 1 mL of peptide solution at 5 times chosen assay concentration to test, 3.75 mL AST, and 0.25 mL of a 1:10 McFarland dilution in AST. Positive controls contained 4.75 mL AST and 0.25 mL of strain inoculum diluted in AST; negative controls only contained 5 mL of AST. After adding the inoculum into each tube and vortexing, a 150 µL aliquot was taken from each tube at timepoint 0 h. All tubes were then placed in a 37 °C shaker-incubator at 180 rpm. Likewise, for timepoints 2, 4, 8, and 24 h, a 150 µL aliquot was withdrawn at each time for each tube. Each of these aliquots was serially diluted in 1:10 ratio in PBS 1× and 20 µL of the serial dilutions were spread on LB agar plates and incubated O/N at 37 °C. […] grown in LB agar plates were counted. Bacterial concentration (CFU/mL) for each strain, timepoint, and peptide concentration tested was calculated. Bactericidal effect was considered when there was a decrease of at least 3 in log10 (CFU/mL) for each peptide concentration at a given timepoint against each bacterial strain studied. A detection limit of 50 CFU/mL was established, corresponding to 1.70 log10 (CFU/mL), as 20 µL of each direct aliquot sample was spread in LB agar plates. Three replicates were run per peptide and strain.

[2] = system: P. aeruginosa R2; experiment: Time-kill kinetic assay; format: cell-based, Pseudomonas aeruginosa
Experimental: as §1

Row | Molecule | incubation time to 3 log reduction / bactericidal effect ([1]; strain ATCC 121110, 4× MIC) [h] | incubation time to 3 log reduction / bactericidal effect ([1]; strain ATCC 121110, 8× MIC) [h] | effect after 24 h incubation ([2]; strain R2, 4× MIC) | incubation time to bactericidal effect (decrease of at least 3 log10 CFU/mL) ([2]; strain R2, 4× MIC) [h] | effect after 24 h incubation ([2]; strain R2, 8× MIC) | incubation time to bactericidal effect (decrease of at least 3 log10 CFU/mL) ([2]; strain R2, 8× MIC) [h] | effect after 24 h incubation ([1]; strain ATCC 121110, 8× MIC) | incubation time to bactericidal effect (decrease of at least 3 log10 CFU/mL) ([2]; strain R2, 2× MIC) [h]
1 | CC[C@@H](C)[C@@H](NC(=O)[C@@H](CCCCN)NC(=O)[C@@H](CCCCN)NC(=O)[C@@H](CC(C)C)NC(=O)[C@@H](CCCCN)NC(=O)[C@@H](CCC(=O)O)NC(=O)[C@@H](CCCCN)NC(=O)[C@H](NC(=O)[C@@H](CCCCN)NC(=O)[C@@H](CC(N)=O)NC(=O)[C@@H](CCCNC(=N)N)NC(=O)[C@@H](Cc1ccccc1)NC(=O)[C@@H](CCCCN)NC(=O)[C@@H](CCCNC(=N)N)NC(=O)[C@@H](CC(C)C)NC(=O)[C@@H](CCCNC(=N)N)NC(=O)[C@@H](CCCCN)NC(=O)[C@@H](CCCNC(=N)N)NC(=O)[C@@H](CC(C)C)NC(=O)CN)[C@H](C)CC)C(=O)NCC(=O)N[C@H](CCC(N)=O)C(=O)N[C@H](CCCCN)C(=O)N[C@@H](C(=O)N[C@H](CCC(N)=O)C(=O)NCC(=O)N[C@H](CC(C)C)C(=O)N[C@H](CC(C)C)C(=O)N1CCC[C@@H]1C(=O)N[C@H](CCCCN)C(=O)N[C@H](CC(C)C)C(=O)O)[C@H](C)CC [D-CAP-18_31, Glrkrlrkfrnkikeklkkigqkiqgllpkl] (H-G[dL][dR][dK][dR][dL][dR][dK][dF][dR][dN][dK][dI][dK][dE][dK][dL][dK][dK][dI]G[dQ][dK][dI][dQ]G[dL][dL][dP][dK][dL]-OH) | 4 | 4 | maintained after 24 h | 8 | maintained after 24 h | 4 |  | 
2 | H-GLRKRLRKFRNKIKEKLKKIGQKIQGLLPKL-OH [CAP-18_31] |  |  | bacterial regrowth | 4 | maintained the bactericidal effect after 24 h | 4 | total eradication of the bacterial growth | 8
